Source: the supplement of paper PMC10307832

Columns and labels:
Test in all cases: relative viability (nuclei count vs DMSO), 5 days (fraction); higher = more cells survive
[1] = compound: NC1(c2ccc(-c3nc4ccn5c(=O)[nH]nc5c4cc3-c3ccccc3)cc2)CCC1 [MK-2206] + CC1(C)CCC(c2ccc(Cl)cc2)=C(CN2CCN(c3ccc(C(=O)NS(=O)(=O)c4ccc(N[C@H](CCN5CCOCC5)CSc5ccccc5)c(S(=O)(=O)C(F)(F)F)c4)cc3)CC2)C1 [Navitoclax] (partner 0.5 µM)
Procedure, shortened: (§1)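 Relative viability equals treated-well nuclei counts divided by vehicle-well nuclei counts. Counts came from 4× images of lung cancer cell lines grown in 1536-well plates for 5 days after pin-tool dosing on the day after seeding. Dosing used one drug alone or a fixed anchor-drug dose plus five library-drug doses (not always all listed) in √10 steps, and values are medians of duplicate plates.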

[2] = compound: CS(=O)(=O)N1CCN(Cc2cc3nc(-c4cccc5[nH]ncc45)nc(N4CCOCC4)c3s2)CC1 [Pictilisib] + COc1cc2c(Oc3ccc(NC(=O)C4(C(=O)Nc5ccc(F)cc5)CC4)cc3F)ccnc2cc1OCCCN1CCOCC1 [Foretinib] (partner 0.25 µM)
Procedure, shortened: as §1

[3] = compound: CS(=O)(=O)N1CCN(Cc2cc3nc(-c4cccc5[nH]ncc45)nc(N4CCOCC4)c3s2)CC1 [Pictilisib] + Nc1ncn([C@H]2C[C@H](O)[C@@H](CO)O2)c(=O)n1 [Decitabine] (partner 2 µM)
Procedure, shortened: as §1

[4] = compound: CS(=O)(=O)N1CCN(Cc2cc3nc(-c4cccc5[nH]ncc45)nc(N4CCOCC4)c3s2)CC1 [Pictilisib] + CC1(C)CCC(c2ccc(Cl)cc2)=C(CN2CCN(c3ccc(C(=O)NS(=O)(=O)c4ccc(N[C@H](CCN5CCOCC5)CSc5ccccc5)c(S(=O)(=O)C(F)(F)F)c4)cc3)CC2)C1 [Navitoclax] (partner 0.5 µM)
Procedure, shortened: as §1

[5] = compound: NC1(c2ccc(-c3nc4ccn5c(=O)[nH]nc5c4cc3-c3ccccc3)cc2)CCC1 [MK-2206] + CC(=O)Nc1cccc(-n2c(=O)n(C3CC3)c(=O)c3c(Nc4ccc(I)cc4F)n(C)c(=O)c(C)c32)c1 [Trametinib] (partner 0.02 µM)
Procedure, shortened: as §1

| Cell Line | relative viability ([1]; first compound 0.01 µM) | relative viability ([1]; first compound 0.03162 µM) | relative viability ([1]; first compound 0.3162 µM) | relative viability ([1]; first compound 1 µM) | relative viability ([2]; first compound 0.02 µM) | relative viability ([2]; first compound 0.06325 µM) | relative viability ([2]; first compound 0.6325 µM) | relative viability ([2]; first compound 2 µM) | relative viability ([3]; first compound 0.02 µM) | relative viability ([3]; first compound 0.06325 µM) | relative viability ([3]; first compound 0.6325 µM) | relative viability ([3]; first compound 2 µM) | relative viability ([4]; first compound 0.02 µM) | relative viability ([4]; first compound 0.06325 µM) | relative viability ([4]; first compound 0.6325 µM) | relative viability ([4]; first compound 2 µM) | relative viability ([5]; first compound 0.01 µM) | relative viability ([5]; first compound 0.03162 µM) | relative viability ([5]; first compound 0.3162 µM) | relative viability ([5]; first compound 1 µM) |
| --- | --- | --- | --- | --- | --- | --- | --- | --- | --- | --- | --- | --- | --- | --- | --- | --- | --- | --- | --- | --- |
| H3255 | 0.519 | 0.579 | 0.439 | 0.312 | 0.813 | 0.884 | 0.571 | 0.494 | 0.667 | 0.521 | 0.466 | 0.342 | 0.626 | 0.516 | 0.498 | 0.173 | 0.523 | 0.618 | 0.493 | 0.502 |
| NCI-H23 | 0.956 | 0.899 | 0.947 | 0.811 | 0.919 | 0.94 | 0.778 | 0.437 | 0.305 | 0.333 | 0.309 | 0.271 | 0.852 | 0.899 | 0.665 | 0.372 | 0.267 | 0.342 | 0.345 | 0.299 |
| NCI-H1944 | 1.07 | 1.03 | 1.02 | 0.992 | 0.866 | 0.737 | 0.627 | 0.382 | 0.423 | 0.352 | 0.391 | 0.315 | 1.04 | 0.99 | 0.974 | 0.394 | 0.405 | 0.41 | 0.392 | 0.385 |
| EBC-1 | 0.455 | 0.385 | 0.23 | 0.131 | 0.122 | 0.0955 | 0.112 | 0.115 | – | – | – | – | 0.38 | 0.412 | 0.164 | 0.126 | – | – | – | – |
| CAL-12T | 0.963 | 1.32 | 1.22 | 1.14 | 1.09 | 1.14 | 1.08 | 0.918 | – | – | – | – | 1.29 | 1.24 | 1.2 | 1.07 | 0.406 | 0.307 | 0.307 | 0.313 |
| NCI-H1792 | 0.603 | 0.706 | 0.655 | 0.578 | – | – | – | – | 0.509 | 0.592 | 0.491 | 0.22 | 0.641 | 0.728 | 0.383 | 0.226 | 0.363 | 0.395 | 0.365 | 0.296 |
| A549 | 1.19 | 1.08 | 1.11 | 0.991 | 1.04 | 0.937 | 0.771 | 0.431 | 0.256 | 0.289 | 0.259 | 0.22 | 1.32 | 1.25 | 0.919 | 0.401 | – | – | – | – |
| NCI-H2342 | – | – | – | – | 0.991 | 1.02 | 0.805 | 0.539 | 0.736 | 0.672 | 0.688 | 0.445 | – | – | – | – | 0.909 | 0.8 | 0.664 | 0.682 |
| NCI-H1648 | – | – | – | – | – | – | – | – | 0.528 | 0.469 | 0.367 | 0.319 | – | – | – | – | 0.491 | 0.497 | 0.591 | 0.497 |
| ABC-1 | – | – | – | – | 1.37 | 0.903 | 0.863 | 0.803 | 1.16 | 1.19 | 1.07 | 0.703 | – | – | – | – | – | – | – | – |
| NCI-H661 | – | – | – | – | 1.01 | 1.06 | 1.05 | 0.645 | 0.546 | 0.58 | 0.523 | 0.412 | – | – | – | – | 0.573 | 0.712 | 0.603 | 0.503 |
| NCI-H1563 | – | – | – | – | 0.839 | 0.935 | 0.674 | 0.532 | – | – | – | – | – | – | – | – | – | – | – | – |
| NCI-H522 | – | – | – | – | – | – | – | – | 0.66 | 0.609 | 0.657 | 0.607 | – | – | – | – | 0.817 | 0.746 | 0.635 | 0.672 |
| NCI-H1623 | – | – | – | – | 0.773 | 0.792 | 0.639 | 0.348 | – | – | – | – | – | – | – | – | – | – | – | – |
| NCI-H2228 | 1.12 | 0.724 | 0.678 | 0.585 | 0.853 | 0.917 | 0.496 | 0.291 | – | – | – | – | 0.948 | 0.563 | 0.59 | 0.181 | 0.375 | 0.433 | 0.284 | 0.448 |
| NCI-H1299 | 1.09 | 1.05 | 1.06 | 1.05 | 1.06 | 1.19 | 1.22 | 1.06 | – | – | – | – | 1.09 | 1.05 | 1.1 | 1.13 | – | – | – | – |
| NCI-H358 | – | – | – | – | 0.749 | 0.763 | 0.548 | 0.274 | 0.199 | 0.199 | 0.18 | 0.115 | – | – | – | – | 0.146 | 0.145 | 0.132 | 0.117 |
| LCLC-103H | – | – | – | – | 0.77 | 0.634 | 0.403 | 0.393 | 0.705 | 0.77 | 0.55 | 0.617 | – | – | – | – | 0.691 | 0.635 | 0.666 | 0.659 |
| Calu-6 | 0.937 | 0.9 | 0.861 | 0.828 | 0.979 | 0.959 | 0.834 | 0.703 | – | – | – | – | 0.911 | 0.855 | 0.656 | 0.569 | – | – | – | – |
| NCI-H650 | – | – | – | – | 0.984 | 1.09 | 1 | 0.877 | 0.336 | 0.297 | 0.318 | 0.411 | – | – | – | – | 0.981 | 0.98 | 1.03 | 0.991 |
